Reference: PubChem BioAssay AID248 (DTP/NCI, 2004)
Toxic doses and inconclusive results are not listed. No stated cut-off is given here; in the data, active means T/C of 150% or more; inactive means T/C below 125%.

System: L1210 leukemia ip in BDF1 mice, survival T/C
Assay: NCI In Vivo Anticancer Drug Screen. Data for tumor model L1210 Leukemia (intraperitoneal) in B6D2F1 (BDF1) mice
Settings: endpoint: mean survival time, higher = longer survival
In short: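 Transplanted-tumor mice were given test agent; controls received vehicle only. Survival readings from the two groups were divided (treated over control).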

[1] = dose: 100.0 mg/kg/injection, schedule: Q01DX009 (ip), vehicle: saline
[2] = dose: 200.0 mg/kg/injection, schedule: Q01DX009 (ip), vehicle: saline
[3] = dose: 400.0 mg/kg/injection, schedule: Q01DX009 (ip), vehicle: saline
[4] = dose: 100.0 mg/kg/injection, schedule: Q04DX002 (ip), vehicle: Klucel (hydroxypropylcellulose) (HPC)
[5] = dose: 200.0 mg/kg/injection, schedule: Q04DX002 (ip), vehicle: Klucel (hydroxypropylcellulose) (HPC)
[6] = dose: 400.0 mg/kg/injection, schedule: Q04DX002 (ip), vehicle: Klucel (hydroxypropylcellulose) (HPC)
[7] = dose: 100.0 mg/kg/injection, schedule: Q04DX003 (ip), vehicle: saline
[8] = dose: 200.0 mg/kg/injection, schedule: Q04DX003 (ip), vehicle: saline
[9] = dose: 400.0 mg/kg/injection, schedule: Q04DX003 (ip), vehicle: saline
[10] = dose: 12.5 mg/kg/injection, schedule: Q01DX009 (ip), vehicle: saline with Tween-80
[11] = dose: 25.0 mg/kg/injection, schedule: Q01DX009 (ip), vehicle: saline with Tween-80
[12] = dose: 75.0 mg/kg/injection, schedule: Q01DX001 (ip), vehicle: carboxymethylcellulose (CMC)
[13] = dose: 100.0 mg/kg/injection, schedule: Q04DX003 (ip), vehicle: Klucel (hydroxypropylcellulose) (HPC)
[14] = dose: 150.0 mg/kg/injection, schedule: Q01DX001 (ip), vehicle: carboxymethylcellulose (CMC)
[15] = dose: 200.0 mg/kg/injection, schedule: Q04DX003 (ip), vehicle: Klucel (hydroxypropylcellulose) (HPC)
[16] = dose: 100.0 mg/kg/injection, schedule: Q04DX003 (ip), vehicle: saline with Tween-80
[17] = dose: 200.0 mg/kg/injection, schedule: Q04DX003 (ip), vehicle: saline with Tween-80
[18] = dose: 400.0 mg/kg/injection, schedule: Q04DX003 (ip), vehicle: saline with Tween-80
[19] = dose: 100.0 mg/kg/injection, schedule: Q01DX009 (ip), vehicle: saline with Tween-80
[20] = dose: 200.0 mg/kg/injection, schedule: Q01DX009 (ip), vehicle: saline with Tween-80

Measured: T/C

Cc1ccc(/C=C/S(=O)(=O)c2ccccc2)cc1
inactive: dose: 100.0 mg/kg/injection, schedule: Q01DX001 (ip), vehicle: acetone 109 % of control | dose: 100.0 mg/kg/injection, schedule: Q01DX009 (ip), vehicle: acetone 87 % of control | dose: 100.0 mg/kg/injection, schedule: Q04DX003 (ip), vehicle: acetone 97 % of control | dose: 200.0 mg/kg/injection, schedule: Q01DX001 (ip), vehicle: acetone 98 % of control | dose: 200.0 mg/kg/injection, schedule: Q01DX009 (ip), vehicle: acetone 87 % of control | dose: 200.0 mg/kg/injection, schedule: Q04DX003 (ip), vehicle: acetone 103 % of control | dose: 400.0 mg/kg/injection, schedule: Q01DX001 (ip), vehicle: acetone 98 % of control | dose: 400.0 mg/kg/injection, schedule: Q01DX009 (ip), vehicle: acetone 88 % of control | dose: 400.0 mg/kg/injection, schedule: Q04DX003 (ip), vehicle: acetone 105 % of control

CCCCNc1ncnc2c1nnn2C1OC(CO)C(O)C1O (stereo unspecified)
inactive: dose: 12.5 mg/kg/injection, schedule: Q04DX002 (ip), vehicle: Klucel (hydroxypropylcellulose) (HPC) 100 % of control | dose: 25.0 mg/kg/injection, schedule: Q04DX002 (ip), vehicle: Klucel (hydroxypropylcellulose) (HPC) 94 % of control | dose: 50.0 mg/kg/injection, schedule: Q04DX002 (ip), vehicle: Klucel (hydroxypropylcellulose) (HPC) 97 % of control

COc1cc(CC(C(=O)OC(C)(C)C)C(=O)OC(C)(C)C)cc(OC)c1OC
inactive: dose: 50.0 mg/kg/injection, schedule: Q01DX001 (ip), vehicle: carboxymethylcellulose (CMC) 101 % of control | dose: 100.0 mg/kg/injection, schedule: Q01DX001 (ip), vehicle: carboxymethylcellulose (CMC) 97 % of control | dose: 200.0 mg/kg/injection, schedule: Q01DX001 (ip), vehicle: carboxymethylcellulose (CMC) 97 % of control | dose: 400.0 mg/kg/injection, schedule: Q01DX001 (ip), vehicle: carboxymethylcellulose (CMC) 109 % of control

CCCCCC[Si](CCCCCC)CCCCCC
inactive: dose: 75.0 mg/kg/injection, schedule: Q04DX003 (ip), vehicle: saline with Tween-80 93 % of control | [1] 102 % of control | dose: 150.0 mg/kg/injection, schedule: Q04DX003 (ip), vehicle: saline with Tween-80 90 % of control | [2] 105 % of control | dose: 300.0 mg/kg/injection, schedule: Q04DX003 (ip), vehicle: saline with Tween-80 88 % of control | [3] 93 % of control

NC(=O)Nc1ccccc1-c1ccccc1
inactive: [4] 103 % of control | [5] 109 % of control | [6] 103 % of control

O=C(Cc1ccccc1)c1ccccn1
inactive: dose: 100.0 mg/kg/injection, schedule: Q01DX001 (ip), vehicle: other 95 % of control | dose: 200.0 mg/kg/injection, schedule: Q01DX001 (ip), vehicle: other 98 % of control | dose: 400.0 mg/kg/injection, schedule: Q01DX001 (ip), vehicle: other 101 % of control

N#Cc1cc(Cl)c(OCc2ccccc2)c(Cl)c1
inactive: dose: 50.0 mg/kg/injection, schedule: Q01DX001 (ip), vehicle: saline with Tween-80 102 % of control | dose: 100.0 mg/kg/injection, schedule: Q01DX001 (ip), vehicle: saline with Tween-80 104 % of control | dose: 200.0 mg/kg/injection, schedule: Q01DX001 (ip), vehicle: saline with Tween-80 95 % of control

COc1cc(C(N)=O)cc(OC)c1O
inactive: [1] 92 % of control | [7] 97 % of control | [2] 103 % of control | [8] 108 % of control | [3] 113 % of control | [9] 100 % of control

Nc1cccc(C(=O)O)c1C(=O)O
inactive: dose: 6.25 mg/kg/injection, schedule: Q01DX009 (ip), vehicle: saline with Tween-80 100 % of control | [10] 96 % of control | [11] 91 % of control | [12] 91 % of control | [13] 100 % of control | [14] 94 % of control | [15] 91 % of control

O=C(OCC(COC(=O)c1ccccc1)(COC(=O)c1ccccc1)COC(=O)c1ccccc1)c1ccccc1
inactive: dose: 100.0 mg/kg/injection, schedule: Q01DX009 (ip), vehicle: Klucel (hydroxypropylcellulose) (HPC) 91 % of control | [13] 91 % of control | dose: 200.0 mg/kg/injection, schedule: Q01DX009 (ip), vehicle: Klucel (hydroxypropylcellulose) (HPC) 105 % of control | [15] 99 % of control | dose: 400.0 mg/kg/injection, schedule: Q01DX009 (ip), vehicle: Klucel (hydroxypropylcellulose) (HPC) 96 % of control | dose: 400.0 mg/kg/injection, schedule: Q04DX003 (ip), vehicle: Klucel (hydroxypropylcellulose) (HPC) 98 % of control

CCOC(=O)/C(O)=C\c1ccc(OC)n[n+]1[O-]
inactive: dose: 35.0 mg/kg/injection, schedule: Q04DX002 (ip), vehicle: Klucel (hydroxypropylcellulose) (HPC) 104 % of control | dose: 70.0 mg/kg/injection, schedule: Q04DX002 (ip), vehicle: Klucel (hydroxypropylcellulose) (HPC) 104 % of control | dose: 140.0 mg/kg/injection, schedule: Q04DX002 (ip), vehicle: Klucel (hydroxypropylcellulose) (HPC) 104 % of control

CC(C)CC(NC(=O)C(C)NC(=O)OCc1ccccc1)C(=O)OCc1ccccc1 (stereo unspecified)
inactive: [16] 92 % of control | [17] 92 % of control | [18] 91 % of control

COC(=O)C1OC(n2cnc3c(N)ncnc32)C(O)C1O (stereo unspecified)
inactive: dose: 100.0 mg/kg/injection, schedule: Q01DX005 (ip), vehicle: saline 101 % of control | dose: 200.0 mg/kg/injection, schedule: Q01DX005 (ip), vehicle: saline 101 % of control

c1ccc(-c2nnc(-c3ccccn3)nc2-c2ccccc2)cc1
inactive: [16] 95 % of control | [17] 104 % of control | [18] 112 % of control

CC(C)(C)CC(C)(C)N(CSc1ccc2ccccc2c1)CSc1ccc2ccccc2c1
inactive: dose: 100.0 mg/kg/injection, schedule: Q01DX001 (ip), vehicle: saline 98 % of control | dose: 200.0 mg/kg/injection, schedule: Q01DX001 (ip), vehicle: saline 98 % of control | dose: 400.0 mg/kg/injection, schedule: Q01DX001 (ip), vehicle: saline 91 % of control

c1cc2c(c(NC3=NCCCO3)c1)CCCC2
inactive: [10] 95 % of control | [11] 106 % of control | dose: 50.0 mg/kg/injection, schedule: Q01DX009 (ip), vehicle: saline with Tween-80 106 % of control | dose: 50.0 mg/kg/injection, schedule: Q04DX003 (ip), vehicle: saline with Tween-80 101 % of control

CCOC(=O)CCCSCCCC(=O)OCC
inactive: [1] 111 % of control | [7] 111 % of control | [2] 101 % of control | [8] 98 % of control | [3] 110 % of control | [9] 88 % of control

CC(CCC(=O)O)Cc1ccccc1 (stereo unspecified)
inactive: dose: 25.0 mg/kg/injection, schedule: Q01DX009 (ip), vehicle: saline 101 % of control | dose: 50.0 mg/kg/injection, schedule: Q01DX009 (ip), vehicle: saline 101 % of control | [1] 86 % of control

Cc1c(CCC(C)C)oc2cc3oc(CCC(C)C)c(C)c3cc12
inactive: [12] 96 % of control | [14] 90 % of control | dose: 300.0 mg/kg/injection, schedule: Q01DX001 (ip), vehicle: carboxymethylcellulose (CMC) 90 % of control

CCCCOB=O
inactive: [19] 96 % of control | [20] 106 % of control | dose: 400.0 mg/kg/injection, schedule: Q01DX009 (ip), vehicle: saline with Tween-80 98 % of control

CC12CCC3c4cc(N)c(O)cc4CCC3C1CCC2=O (stereo unspecified)
inactive: [4] 92 % of control | [5] 99 % of control | [6] 101 % of control

c1ccc(CCCSc2ccccc2)cc1
inactive: [19] 120 % of control | [16] 108 % of control | [20] 104 % of control | [17] 94 % of control | [18] 100 % of control
